Test results taken from patent publication US12577234B2, “Antagonists of the muscarinic acetylcholine receptor M4” (Vanderbilt University, priority 2017, dated 2026).

Biological target: T1, human mAChR M4 (Homo sapiens, UniProt P08173)
T1 construct: expressed in transfected cells; host or cells: CHO-K1 (ATCC), stably co-expressing chimeric G protein Gqi5
T1 sequence (P08173 1-479): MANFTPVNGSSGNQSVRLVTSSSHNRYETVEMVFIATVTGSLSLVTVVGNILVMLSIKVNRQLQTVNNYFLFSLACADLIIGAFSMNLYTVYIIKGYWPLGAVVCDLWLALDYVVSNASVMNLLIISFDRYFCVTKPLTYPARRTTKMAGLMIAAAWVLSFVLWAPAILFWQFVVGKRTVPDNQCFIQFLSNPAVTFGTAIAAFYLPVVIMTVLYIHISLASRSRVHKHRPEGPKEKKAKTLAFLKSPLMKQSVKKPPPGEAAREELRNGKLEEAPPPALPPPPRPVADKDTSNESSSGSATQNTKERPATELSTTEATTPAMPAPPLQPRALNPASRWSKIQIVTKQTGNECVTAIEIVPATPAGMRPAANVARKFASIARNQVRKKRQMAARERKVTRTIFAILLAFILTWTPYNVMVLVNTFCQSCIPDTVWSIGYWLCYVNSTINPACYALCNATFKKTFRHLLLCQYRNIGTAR
Test: mAChR M4 cell-based functional assay (calcium mobilization, EC80 acetylcholine), human M4
Conditions: for IC50: M4/Gqi5/CHO-K1 cells, decrease of EC80 acetylcholine response; for Emin: human M4, % ACh maximum at 30 μM
In short: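 CHO-K1 cells stably expressing human M4 with chimeric Gqi5; intracellular calcium rise read on FDSS as fluorescence static ratio at 1 Hz. Compounds in 10-point 1:3 dilution series; IC50 taken as concentration-dependent decrease of the EC80 acetylcholine response, four-parameter logistic fit.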

| Compound | IC50 (Table 9) | Emin (Table 9) | Human M4 Emin (Table 10) | IC50 (Table 10) |
| --- | --- | --- | --- | --- |
| Fc1ccc(Cl)c(-c2ccc(OCC3C[C@@H]4CN(CC5CCCOC5)C[C@@H]4C3)nn2)c1 (stereo partly drawn) [Compound 113, (3aR,6aS)-5-[[6-(2-chloro-5-fluoro-phenyl)pyridazin-3-yl]oxymethyl]-2-(tetrahydropyran-3-ylmethyl)-3,3a,4,5,6,6a-hexahydro-1H-cyclopenta[c]pyrrole] | 860 nM | 4.76% | – | – |
| Fc1ccc(Cl)c(-c2ccc(OCC3C[C@@H]4CN(Cc5ccccc5)C[C@@H]4C3)nn2)c1 (stereo partly drawn) [Compound 114, (3aR,6aS)-2-benzyl-5-[[6-(2-chloro-5-fluoro-phenyl)pyridazin-3-yl]oxymethyl]-3,3a,4,5,6,6a-hexahydro-1H-cyclopenta[c]pyrrole] | 2500 nM | 6.02% | – | – |
| Fc1ccc(Cl)c(-c2ccc(OCC3C[C@@H]4CN(Cc5ccccc5F)C[C@@H]4C3)nn2)c1 (stereo partly drawn) [Compound 115, (3aR,6aS)-5-[[6-(2-chloro-5-fluoro-phenyl)pyridazin-3-yl]oxymethyl]-2-[(2-fluorophenyl)methyl]-3,3a,4,5,6,6a-hexahydro-1H-cyclopenta[c]pyrrole] | 5660 nM | 9.93% | – | – |
| Fc1ccc(CN2C[C@H]3CC(COc4ccc(-c5cc(F)ccc5Cl)nn4)C[C@H]3C2)cc1 (stereo partly drawn) [Compound 116, (3aR,6aS)-5-[[6-(2-chloro-5-fluoro-phenyl)pyridazin-3-yl]oxymethyl]-2-[(4-fluorophenyl)methyl]-3,3a,4,5,6,6a-hexahydro-1H-cyclopenta[c]pyrrole] | 3380 nM | 6.49% | – | – |
| Fc1ccc(Cl)c(-c2ccc(OCC3C[C@@H]4CN(Cc5ccccn5)C[C@@H]4C3)nn2)c1 (stereo partly drawn) [Compound 117, (3aR,6aS)-5-[[6-(2-chloro-5-fluoro-phenyl)pyridazin-3-yl]oxymethyl]-2-(2-pyridylmethyl)-3,3a,4,5,6,6a-hexahydro-1H-cyclopenta[c]pyrrole] | 1460 nM | 4.82% | – | – |
| Cc1cccnc1CN1C[C@H]2CC(COc3ccc(-c4cc(F)ccc4Cl)nn3)C[C@H]2C1 (stereo partly drawn) [Compound 118, (3aR,6aS)-5-[[6-(2-chloro-5-fluoro-phenyl)pyridazin-3-yl]oxymethyl]-2-[(3-methyl-2-pyridyl)methyl]-3,3a,4,5,6,6a-hexahydro-1H-cyclopenta[c]pyrrole] | 694 nM | 2.25% | – | – |
| Fc1ccc(Cl)c(-c2ccc(OCC3C[C@@H]4CN(Cc5ccc6c(c5)OCO6)C[C@@H]4C3)nn2)c1 (stereo partly drawn) [Compound 119, (3aR,6aS)-2-(1,3-benzodioxol-5-ylmethyl)-5-[[6-(2-chloro-5-fluoro-phenyl)pyridazin-3-yl]oxymethyl]-3,3a,4,5,6,6a-hexahydro-1H-cyclopenta[c]pyrrole] | 668 nM | 4.24% | – | – |
| Cc1cnn(C)c1-c1ccc(NCCC2C[C@@H]3CN(CCC(C)(C)C)C[C@@H]3C2)nn1 (stereo partly drawn) [Compound 120, 6-(1,4-Dimethyl-1H-pyrazol-5-yl)-N-(2-((3aR,6aS)-2-(3,3-dimethylbutyl)octahydrocyclopenta[c]pyrrol-5-yl)ethyl)pyridazin-3-amine] | 2 nM | 3.48% | – | – |
| Cc1cnn(C)c1-c1ccc(NCCC2C[C@@H]3CN(CC45CC6CC(CC(C6)C4)C5)C[C@@H]3C2)nn1 (stereo partly drawn) [Compound 121, N-[2-[(3aR,6aS)-2-(1-adamantylmethyl)-3,3a,4,5,6,6a-hexahydro-1H-cyclopenta[c]pyrrol-5-yl]ethyl]-6-(2,4-dimethylpyrazol-3-yl)pyridazin-3-amine] | 47 nM | 3.59% | – | – |
| Cc1cnn(C)c1-c1ccc(NCCC2C[C@@H]3CN(CC4CCCOC4)C[C@@H]3C2)nn1 (stereo partly drawn) [Compound 122, N-[2-[(3aR,6aS)-2-(tetrahydropyran-3-ylmethyl)-3,3a,4,5,6,6a-hexahydro-1H-cyclopenta[c]pyrrol-5-yl]ethyl]-6-(2,4-dimethylpyrazol-3-yl)pyridazin-3-amine] | 27.3 nM | 4.29% | – | – |
| Cc1cnn(C)c1-c1ccc(NCCC2C[C@@H]3CN(CC4CC5C=CC4C5)C[C@@H]3C2)nn1 (stereo partly drawn) [Compound 123, N-[2-[(3aR,6aS)-2-(5-bicyclo[2.2.1]hept-2-enylmethyl)-3,3a,4,5,6,6a-hexahydro-1H-cyclopenta[c]pyrrol-5-yl]ethyl]-6-(2,4-dimethylpyrazol-3-yl)pyridazin-3-amine] | 6.2 nM | 2.16% | – | – |
| Cc1cccnc1CN1C[C@H]2CC(CCNc3ccc(-c4c(C)cnn4C)nn3)C[C@H]2C1 (stereo partly drawn) [Compound 124, N-[2-[(3aR,6aS)-2-[(3-methyl-2-pyridyl)methyl]-3,3a,4,5,6,6a-hexahydro-1H-cyclopenta[c]pyrrol-5-yl]ethyl]-6-(2,4-dimethylpyrazol-3-yl)pyridazin-3-amine] | 20.6 nM | 3.25% | – | – |
| Cc1cnn(C)c1-c1ccc(NCCC2C[C@@H]3CN(CC4CCOCC4)C[C@@H]3C2)nn1 (stereo partly drawn) [Compound 125, N-[2-[(3aR,6aS)-2-(tetrahydropyran-4-ylmethyl)-3,3a,4,5,6,6a-hexahydro-1H-cyclopenta[c]pyrrol-5-yl]ethyl]-6-(2,4-dimethylpyrazol-3-yl)pyridazin-3-amine] | 28.7 nM | 4.41% | – | – |
| Cc1cnn(C)c1-c1ccc(NCCC2C[C@@H]3CN(Cc4ccccc4)C[C@@H]3C2)nn1 (stereo partly drawn) [Compound 126, N-[2-[(3aR,6aS)-2-benzyl-3,3a,4,5,6,6a-hexahydro-1H-cyclopenta[c]pyrrol-5-yl]ethyl]-6-(2,4-dimethylpyrazol-3-yl)pyridazin-3-amine] | 23 nM | 3.89% | – | – |
| Cc1cnn(C)c1-c1ccc(NCCC2C[C@@H]3CN(Cc4ccccc4F)C[C@@H]3C2)nn1 (stereo partly drawn) [Compound 127, N-[2-[(3aR,6aS)-2-[(2-fluorophenyl)methyl]-3,3a,4,5,6,6a-hexahydro-1H-cyclopenta[c]pyrrol-5-yl]ethyl]-6-(2,4-dimethylpyrazol-3-yl)pyridazin-3-amine] | 57.8 nM | 4.93% | – | – |
| CC(=O)Nc1ccc(-c2ccc(O[C@H]3C[C@@H]4CN(CC5CCCCC5)C[C@@H]4C3)nn2)cc1 [Compound 130, N-[4-[6-[[(3aR,5s,6aS)-2-(cyclohexylmethyl)-3,3a,4,5,6,6a-hexahydro-1H-cyclopenta[c]pyrrol-5-yl]oxy]pyridazin-3-yl]phenyl]acetamide] | – | – | 3% | 58.3 nM |
| CC(=O)Nc1ccc(-c2ccc(O[C@H]3C[C@@H]4CN(Cc5ccc(F)cc5)C[C@@H]4C3)nn2)cc1 [Compound 131, N-[4-[6-[[(3aR,5s,6aS)-2-[(4-fluorophenyl)methyl]-3,3a,4,5,6,6a-hexahydro-1H-cyclopenta[c]pyrrol-5-yl]oxy]pyridazin-3-yl]phenyl]acetamide] | – | – | 3% | 977 nM |
| CC(=O)Nc1ccc(-c2ccc(O[C@H]3C[C@@H]4CN(Cc5ncccc5C)C[C@@H]4C3)nn2)cc1 [Compound 133, N-[4-[6-[[(3aR,5s,6aS)-2-[(3-methyl-2-pyridyl)methyl]-3,3a,4,5,6,6a-hexahydro-1H-cyclopenta[c]pyrrol-5-yl]oxy]pyridazin-3-yl]phenyl]acetamide] | – | – | 5% | 1070 nM |
| Cc1nn(C)cc1-c1ccc(O[C@H]2C[C@@H]3CN(CCC(C)(C)C)C[C@@H]3C2)nn1 [Compound 134, (3aR,5s,6aS)-2-(3,3-dimethylbutyl)-5-[6-(1,3-dimethylpyrazol-4-yl)pyridazin-3-yl]oxy-3,3a,4,5,6,6a-hexahydro-1H-cyclopenta[c]pyrrole] | – | – | 4% | 17.3 nM |
| Cc1cnn(C)c1-c1ccc(O[C@H]2C[C@@H]3CN(CCC(C)(C)C)C[C@@H]3C2)nn1 [Compound 135, (3aR,5s,6aS)-2-(3,3-dimethylbutyl)-5-[6-(2,4-dimethylpyrazol-3-yl)pyridazin-3-yl]oxy-3,3a,4,5,6,6a-hexahydro-1H-cyclopenta[c]pyrrole] | – | – | 5% | 287 nM |
| Cc1noc(C)c1-c1ccc(O[C@H]2C[C@@H]3CN(CCC(C)(C)C)C[C@@H]3C2)nn1 [Compound 136, 4-[6-[[(3aR,5s,6aS)-2-(3,3-dimethylbutyl)-3,3a,4,5,6,6a-hexahydro-1H-cyclopenta[c]pyrrol-5-yl]oxy]pyridazin-3-yl]-3,5-dimethyl-isoxazole] | – | – | 3% | 174 nM |
| CC(C)(C)CCN1C[C@H]2C[C@H](Oc3ccc(-c4ccc(C(F)(F)F)cc4)nn3)C[C@H]2C1 [Compound 139, (3aR,5s,6aS)-2-(3,3-dimethylbutyl)-5-[6-[4-(trifluoromethyl)phenyl]pyridazin-3-yl]oxy-3,3a,4,5,6,6a-hexahydro-1H-cyclopenta[c]pyrrole] | – | – | 4% | 1560 nM |
| Cc1noc(C)c1-c1ccc(N[C@H]2C[C@@H]3CN(CCC(C)(C)C)C[C@@H]3C2)nn1 [Compound 142, (3aR,5s,6aS)-2-(3,3-dimethylbutyl)-N-[6-(3,5-dimethylisoxazol-4-yl)pyridazin-3-yl]-3,3a,4,5,6,6a-hexahydro-1H-cyclopenta[c]pyrrol-5-amine] | – | – | 6% | 1.82 nM |
